{"source": "patent US12275725B2", "about": "“Inhibitors of the notch transcriptional activation complex and methods for use of the same” (University of Miami, priority 2019, dated 2025)", "key": {"[1]": {"tested_on": "esophageal adenocarcinoma patient-derived xenograft (EAC47 PDX tumor)", "assay": "Esophageal adenocarcinoma patient-derived xenograft (PDX) model", "format": "in vivo", "conditions": "NSG mice, 25 days of treatment", "experimental": "Mouse Xenograft Studies Six-week-old NOD-SCID gamma (“NSG”) mice were purchased from Jackson Laboratories and CD-1 Nude mice were purchased from Charles River Laboratories. For the cell line based xenografts assay, 5×10^6 OE19 cells in 200 μl serum-free culture medium were injected subcutaneously per mouse. The mice in the treatment group were injected with 15 mg/kg NADi-351 daily, and the mice in the control group were injected with the same volume of vehicle (DMSO). Subcutaneous tumor growth was measured once every 4 days using calipers along with body weight. The experiment was discontinued on day 28. PDX cancer models were established, as described in Zhang et al, Establishment of Patient-Derived Xenograft (PDX) Models of Human Breast Cancer, Current Protocols in Mouse Biology, 3:21-29 (2013), in NSG mice. Briefly, 10 mm^3 pieces of primary EAC47 PDX tumor were transplanted subcutaneously into the flanks of NSG mice using a 13G telescopic needle. When the tumors reached 200 mm^3, the mice were split into two uniform groups for treatment. NADi-351 (20 mg/kg) and vehicle were administered daily by intraperitoneal (“IP”) injection for 24 days. Tumor growth was monitored every 4 days and tumor volume was measured by the formula: Volume=(S×S×L)/2, where S and L are the short and long dimensions. […]"}, "[2]": {"tested_on": "intestinal crypts", "assay": "Histological analysis of mouse intestine tissue (H&E and PAS staining)", "format": "in vivo, BALB/c mice", "conditions": "5 days; DBZ at efficacious dose, NADi-351 at 4x the efficacious dose", "experimental": "The compounds and salts disclosed herein no not induce goblet cell metaplasia in intestinal crypts. Intestinal crypts were exposed to vehicle (DMSO), an efficacious dose of dibenzazepine (“DBZ”), a γ-secretase inhibitor, and 4× the efficacious dose of NADi-351 and stained with a hemotoxylin and eosin (“H&E”) stain and a periodic acid-Schiff (“PAS”) stain.\nSix-week old BALB/c mice (Jackson Laboratories) were injected intraperitoneally with NADi-351, daily for 5 days. Small intestine samples were harvested on day 5. Formalin-fixed and paraffin-embedded tissues were sectioned at 3 μm thickness. Histochemical identification of intestinal cell types was performed with Periodic Acid-Schiff (PAS) staining kit (ab150680, Abcam), according to manufacturer's instructions."}}, "data": [{"smiles": "COc1cc(/C(C)=C2\\SC(=S)N(CC(=O)N(C)C)C2=O)cc(F)c1OCc1nnc[nH]1", "note": "[NADi-351, (Z)-2-(5-(1-(4-((1H-1,2,4-triazol-3-yl)methoxy)-3-fluoro-5-methoxyphenyl)ethylidene)-4-oxo-2-thioxothiazolidin-3-yl)-N,N-dimethylacetamide]", "values": [{"measurement": "body weight of the subjects", "setting": "[1]", "value": "remained constant"}, {"measurement": "volume of the tumor", "setting": "[1]; compared to control", "value": "significantly inhibited compared to control"}, {"measurement": "goblet cell metaplasia / crypt integrity (H&E and PAS staining)", "setting": "[2]", "value": "no goblet cell metaplasia and intact crypts"}]}]}
